Source: patent US20210269451A1, “PYRIDINYL HETEROCYCLYL COMPOUNDS FOR THE TREATMENT OF AUTOIMMUNE DISEASE” (Hoffmann-La Roche Inc., priority 2018, published 2021)

Legend:
[1] = Human microsome stability assay; format: in vitro ADME; conditions: 1 μM test compound, 0.5 mg/mL liver microsomal protein, 37° C.
Procedure: Human microsome stability assay
The human microsomal stability assay is used for early assessment of metabolic stability of a test compound in human liver microsomes.
Human liver microsomes (Cat.NO.: 452117, Corning, USA;Cat.NO.:H2610, Xenotech, USA) were preincubated with test compound for 10 minutes at 37° C. in 100 mM potassium phosphate buffer, pH 7.4. The reactions were initiated by adding NADPH regenerating system. The final incubation mixtures contained 1 μM test compound, 0.5 mg/mL liver microsomal protein, 1 mM MgCl2, 1 mM NADP, 1 unit/mL isocitric dehydrogenase and 6 mM isocitric acid in 100 mM potassium phosphate buffer, pH 7.4. After incubation times of 0, 3, 6, 9, 15 and 30 minutes at 37° C., 300 μL of cold acetonitrile (including internal standard) was added to 100 μL incubation mixture to terminate the reaction. Following precipitation and centrifugation, the amount of compound remaining in the samples were determined by LC-MS/MS. Controls of no NADPH regenerating system at zero and 30 minutes were also prepared and analyzed.

hTLR9 = target: T1, hTLR9 (Homo sapiens, UniProt Q9NR96); assay: HEK293-Blue-hTLR-9 cells assay; format: cell-based; design: host or cells: HEK293-Blue-hTLR-9 (HEK293); conditions: HEK293-Blue-hTLR9 cells, ODN2006 stimulation, 20 hrs, SEAP reporter; read-out: HEK/hTLR9 IC50
T1 sequence (Q9NR96 26-1032): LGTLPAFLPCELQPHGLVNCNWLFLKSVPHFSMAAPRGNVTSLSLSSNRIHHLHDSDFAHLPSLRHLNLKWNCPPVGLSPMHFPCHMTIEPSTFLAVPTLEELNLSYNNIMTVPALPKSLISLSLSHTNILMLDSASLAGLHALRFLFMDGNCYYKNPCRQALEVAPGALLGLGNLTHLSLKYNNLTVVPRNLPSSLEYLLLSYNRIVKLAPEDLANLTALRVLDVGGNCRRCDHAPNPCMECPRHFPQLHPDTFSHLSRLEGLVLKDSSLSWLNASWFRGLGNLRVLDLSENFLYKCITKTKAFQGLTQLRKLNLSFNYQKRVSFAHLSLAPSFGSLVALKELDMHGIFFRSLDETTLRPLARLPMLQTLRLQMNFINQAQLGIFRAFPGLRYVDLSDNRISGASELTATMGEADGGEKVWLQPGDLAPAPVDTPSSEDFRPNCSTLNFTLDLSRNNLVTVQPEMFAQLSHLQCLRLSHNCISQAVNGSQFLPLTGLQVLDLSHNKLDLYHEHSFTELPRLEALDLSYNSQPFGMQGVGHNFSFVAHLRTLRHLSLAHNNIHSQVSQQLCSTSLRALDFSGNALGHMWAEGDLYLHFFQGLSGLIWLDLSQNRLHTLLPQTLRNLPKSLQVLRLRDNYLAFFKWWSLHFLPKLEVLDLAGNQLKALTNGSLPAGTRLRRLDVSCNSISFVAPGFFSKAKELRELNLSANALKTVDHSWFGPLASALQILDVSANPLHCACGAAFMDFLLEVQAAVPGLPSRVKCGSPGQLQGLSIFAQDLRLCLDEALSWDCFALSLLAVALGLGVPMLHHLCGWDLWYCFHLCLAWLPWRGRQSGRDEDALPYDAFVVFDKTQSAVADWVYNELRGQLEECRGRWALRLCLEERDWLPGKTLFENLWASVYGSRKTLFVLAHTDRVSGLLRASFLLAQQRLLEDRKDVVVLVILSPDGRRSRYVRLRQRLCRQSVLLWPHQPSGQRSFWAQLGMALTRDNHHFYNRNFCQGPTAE
Procedure: The following tests were carried out in order to determine the activity of the compounds of formula (I) and (Ia) in HEK293-Blue-hTLR-7/8/9 cells assay.
HEK293-Blue-hTLR-9 cells assay:
A stable HEK293-Blue-hTLR-9 cell line was purchased from InvivoGen (Cat. #: hkb-htlr9, San Diego, Calif., USA). These cells were originally designed for studying the stimulation of human TLR9 by monitoring the activation of NE-KB. A SEAP (secreted embryonic alkaline phosphatase) reporter gene was placed under the control of the IFN-β minimal promoter fused to five NE-κB and AP-1-binding sites. The SEAP was induced by activating NE-κB and AP-1 via stimulating HEK-Blue hTLR9 cells with TLR9 ligands. Therefore the reporter expression was declined by TLR9 antagonist under the stimulation of a ligand, such as ODN2006 (Cat. #: tlrl-2006-1, Invivogen, San Diego, Calif., USA), for incubation of 20 hrs. The cell culture supernatant SEAP reporter activity was determined using QUANTI-Blue™ kit (Cat. #: rep-qb1, Invivogen, San Diego, Calif., USA) at a wavelength of 640 nm, a detection medium that turns purple or blue in the presence of alkaline phosphatase.
HEK293-Blue-hTLR9 cells were incubated at a density of 250,000˜450,000 cells/mL in a volume of 170 μL in a 96-well plate in Dulbecco's Modified Eagle's medium (DMEM) containing 4.5 g/L glucose, 50 U/mL penicillin, […], […], 2 mM L-glutamine, 10% (v/v) heat-inactivated fetal bovine serum with addition of 20 μL test compound in a serial dilution in the presence of final DMSO at 1% and 10 μL of 20 uM ODN2006 in above DMEM, perform incubation under 37° C. in a CO2 incubator for 20 hrs. Then 20 μL of the supernatant from each well was incubated with 180 μL Quanti-blue substrate solution at 37° C. for 2 h and the absorbance was read at 620˜655 nm using a spectrophotometer. The signaling pathway that TLR9 activation leads to downstream NE-κB activation has been widely accepted, and therefore similar reporter assay was modified for evaluating TLR9 antagonist.

Structure (SMILES) | Clearance of Human microsome [1] [mL/min/kg] | IC50 (hTLR9) [nM]
Cc1cc(NC2CN(C[C@H]3CN(c4ccc(C#N)c5ncccc45)C[C@@H](C)O3)C2)cc(C)n1 [Example 7] | 6.15 | 39
Cc1cc(N2CCC3(CN(C[C@H]4CN(c5ccc(C#N)c6ncccc56)C[C@@H](C)O4)C3)C2)cc(C)n1 [Example 9] | 6.15 | 32
C[C@@H]1CN(c2ccc(C#N)c3ncccc23)C[C@H](CNC2CCN(c3ccnc(N)c3)CC2)O1 [Example 20, 5-[(2S,6R)-2-[[[1-(2-amino-4-pyridyl)-4-piperidyl]amino]methyl]-6-methyl-morpholin-4-yl]quinoline-8-carbonitrile] | 6.15 | 36
Cc1cc(N2CC[C@@H](NC[C@H]3CN(c4ccc(C#N)c5ncccc45)C[C@@H](C)O3)C2)cc(CO)n1 [Example 28] | 6.25 | 57
Cc1cc(N2CC(NC[C@H]3CN(c4ccc(C#N)c5ncccc45)C[C@@H](C)O3)C2)cc(CO)n1 [Example 30] | 7.14 | 88
Cc1cc(N2CC(N(C)C[C@H]3CN(c4ccc(C#N)c5ncccc45)C[C@@H](C)O3)C2)cc(CO)n1 [Example 37] | 6.15 | 160
Cc1cc(N2CCN(C[C@H]3CN(c4ccc(C#N)c5ncccc45)C[C@@H](C)O3)CC2)cc(N)n1 [Example 40, 5-[(2S,6R)-2-[[4-(2-amino-6-methyl-4-pyridyl)piperazin-1-yl]methyl]-6-methyl-morpholin-4-yl]quinoline-8-carbonitrile] | 6.15 | 41
Cc1cc(N2CC3(CN(C[C@H]4CN(c5ccc(C#N)c6ncccc56)C[C@@H](C)O4)C3)C2)cc(C(C)O)n1 (stereo partly drawn) [Example 44, 5-[(2S,6R)-2-[[2-[2-(1-hydroxyethyl)-6-methyl-4-pyridyl]-2,6-diazaspiro[3.3]heptan-6-yl]methyl]-6-methyl-morpholin-4-yl]quinoline-8-carbonitrile] | 7.21 | < 32
CC(O)c1cc(N2CC3(CN(C[C@H]4CN(c5ccc(C#N)c6ncccc56)C[C@@H](C)O4)C3)C2)ccn1 (stereo partly drawn) [Example 46, 5-[(2S,6R)-2-[[2-[2-(1-hydroxyethyl)-4-pyridyl]-2,6-diazaspiro[3.3]heptan-6-yl]methyl]-6-methyl-morpholin-4-yl]quinoline-8-carbonitrile] | 7.66 | < 32
C[C@@H]1CN(c2ccc(C#N)c3ncccc23)C[C@H](CN2CC3(C2)CN(c2ccnc(C(C)(C)O)c2)C3)O1 [Example 48, 5-[(2S,6R)-2[[2-[2-(1-hydroxy-1-methyl-ethyl)-4-pyridyl]-2,6-diazaspiro[3.3]heptan-6-yl]methyl]-6-methyl-morpholin-4-yl]quinoline-8-carbonitrile] | 6.87 | 148
C[C@@H]1CN(c2ccc(C#N)c3ncccc23)C[C@H](CN2CC3(C2)CN(c2ccnc(C4CC4)c2)C3)O1 [Example 49, 5-[(2S,6R)-2[[2-(2-cyclopropyl-4-pyridyl)-2,6-diazaspiro[3.3]heptan-6-yl]methyl]-6-methyl-morpholin-4-yl]quinoline-8-carbonitrile] | 6.39 | 34
Cc1cc(N2CCN(C[C@H]3CN(c4ccc(C#N)c5ncccc45)C[C@@H](C)O3)CC2)cc(CO)n1 [Example 50] | 7.72 | 134
